Measurements taken from ChEMBL document CHEMBL1146241, “Novel inhibitor for fibroblast growth factor receptor tyrosine kinase” (Bioorg Med Chem Lett, 2007).

Key:
[1] = molecular target: T1, Fibroblast growth factor receptor 1 (Homo sapiens, UniProt P11362); conditions: HUVEC
Target sequence in this assay (P11362 22-822 limits assumed): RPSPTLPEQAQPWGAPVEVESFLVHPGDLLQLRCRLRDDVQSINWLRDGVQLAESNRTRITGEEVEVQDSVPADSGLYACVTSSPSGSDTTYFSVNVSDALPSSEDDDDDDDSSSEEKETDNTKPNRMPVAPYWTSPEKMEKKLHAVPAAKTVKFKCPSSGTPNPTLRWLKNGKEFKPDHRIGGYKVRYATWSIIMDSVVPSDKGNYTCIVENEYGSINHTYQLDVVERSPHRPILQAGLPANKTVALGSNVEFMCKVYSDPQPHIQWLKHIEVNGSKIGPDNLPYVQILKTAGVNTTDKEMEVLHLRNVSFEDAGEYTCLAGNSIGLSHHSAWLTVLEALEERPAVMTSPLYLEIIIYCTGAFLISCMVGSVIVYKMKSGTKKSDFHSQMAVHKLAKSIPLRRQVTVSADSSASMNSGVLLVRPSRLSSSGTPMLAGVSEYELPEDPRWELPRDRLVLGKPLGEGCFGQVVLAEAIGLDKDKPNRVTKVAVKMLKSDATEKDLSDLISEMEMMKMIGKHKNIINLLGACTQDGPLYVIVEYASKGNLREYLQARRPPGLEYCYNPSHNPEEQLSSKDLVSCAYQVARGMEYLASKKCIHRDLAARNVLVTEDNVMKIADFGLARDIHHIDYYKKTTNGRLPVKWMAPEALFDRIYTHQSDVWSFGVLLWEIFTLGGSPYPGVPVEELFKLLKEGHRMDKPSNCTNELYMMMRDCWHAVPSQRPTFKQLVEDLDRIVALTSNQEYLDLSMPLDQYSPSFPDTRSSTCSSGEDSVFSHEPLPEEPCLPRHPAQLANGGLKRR
Description: Inhibition of rhFGF2-induced cellular proliferation of HUVEC

[2] = molecular target: T1, Fibroblast growth factor receptor 1; test: Inhibition of human FGFR1 kinase expressed in insect cell by HTRF detection method
Target sequence in this assay (P11362 whole entry): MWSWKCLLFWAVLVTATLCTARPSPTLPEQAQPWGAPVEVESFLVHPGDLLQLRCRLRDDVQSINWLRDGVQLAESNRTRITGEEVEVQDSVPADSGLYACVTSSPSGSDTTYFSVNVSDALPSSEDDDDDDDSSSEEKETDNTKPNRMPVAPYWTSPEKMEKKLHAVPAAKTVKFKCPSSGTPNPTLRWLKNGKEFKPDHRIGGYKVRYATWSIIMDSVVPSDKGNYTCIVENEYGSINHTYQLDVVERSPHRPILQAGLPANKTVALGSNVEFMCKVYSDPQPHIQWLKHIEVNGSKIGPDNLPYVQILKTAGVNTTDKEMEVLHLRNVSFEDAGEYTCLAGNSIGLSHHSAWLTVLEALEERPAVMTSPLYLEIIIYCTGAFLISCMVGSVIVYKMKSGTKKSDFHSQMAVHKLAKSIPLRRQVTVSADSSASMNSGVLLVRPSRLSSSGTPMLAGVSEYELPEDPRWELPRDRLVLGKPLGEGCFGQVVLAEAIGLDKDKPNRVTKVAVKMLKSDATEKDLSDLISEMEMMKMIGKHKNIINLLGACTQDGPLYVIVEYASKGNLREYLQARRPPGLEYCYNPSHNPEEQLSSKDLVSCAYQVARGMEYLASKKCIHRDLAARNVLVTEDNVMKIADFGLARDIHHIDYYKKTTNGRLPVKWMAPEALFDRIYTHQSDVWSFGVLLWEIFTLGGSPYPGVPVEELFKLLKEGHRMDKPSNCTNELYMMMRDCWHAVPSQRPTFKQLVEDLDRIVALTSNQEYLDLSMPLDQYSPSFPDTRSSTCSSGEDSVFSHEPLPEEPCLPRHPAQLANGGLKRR

| MEC [1] [µM] | IC50 [2] [nM] | SMILES |
| --- | --- | --- |
| 10 | – | Cc1[nH]c(/C=C2\C(=O)Nc3ccccc32)c(C)c1CCC(=O)O |
| 0.4 | 1200 | COc1cccc(-c2ccc3c(c2)NC(=O)/C3=C\c2[nH]c(C)c(CCC(=O)O)c2C)c1 |
| 0.4 | 400 | COc1cc(OC)cc(-c2ccc3c(c2)NC(=O)/C3=C\c2[nH]c(C)c(CCC(=O)O)c2C)c1 |
